Assay type in all cases: in vivo
Assay [1] relates to Cotton. The experiment in a line: Preemergence Herbicidal Activity, Cotton. To be noted: Gossypium hirsutum, pre-emergence. The method in brief:
(§1)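 Percent control scored after pre- or postemergence treatment at rates in kg/ha, using test compounds generally formulated in 50/50 acetone/water.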

For assay [2], the system named is Soybean. Description: Preemergence Herbicidal Activity, Soybean. To be noted: Glycine max, pre-emergence. The method in brief:
(§2)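 Test compounds are dosed on a per-area basis (kg/ha); plant response is reported as % C.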

Assay [3] relates to Field Corn. Description: Preemergence Herbicidal Activity, Field Corn. As to conditions: Zea mays, pre-emergence. The method in brief: as §2
Assay [4] has as its system Rice. Description: Preemergence Herbicidal Activity, Rice. To be noted: Oryza sativa, pre-emergence. The method in brief: as §2
Assay [5] concerns Wheat. Description: Preemergence Herbicidal Activity, Wheat. As to conditions: Triticum aestivum, pre-emergence. Summed up: as §2
Assay [6] has as its system Field Bindweed. Description: Preemergence Herbicidal Activity, Field Bindweed. To be noted: pre-emergence. The method in brief:
as §1

Assay [7] deals with Morningglory. Description: Preemergence Herbicidal Activity, Morningglory. As to conditions: Ipomoea, pre-emergence. The method in brief: as §1
Assay [8] has as its system Velvetleaf. Description: Preemergence Herbicidal Activity, Velvetleaf. As to conditions: Abutilon theophrasti, pre-emergence. Summed up: as §1
The test system of assay [9] is Barnyardgrass. Description: Preemergence Herbicidal Activity, Barnyardgrass. As to conditions: Echinochloa crus-galli, pre-emergence. The method in brief: (§3)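 Herbicidal response was graded as percent control. Compound rates were in kg/ha.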
The test system of assay [10] is Green Foxtail. The experiment in a line: Preemergence Herbicidal Activity, Green Foxtail. To be noted: Setaria viridis, pre-emergence. Summed up:
as §3

Assay [11] concerns Johnsongrass. The experiment in a line: Preemergence Herbicidal Activity, Johnsongrass. As to conditions: Sorghum halepense, pre-emergence. The method in brief:
as §3

Assay [12] has as its system Cotton. Description: Postemergence Herbicidal Activity, Cotton. To be noted: Gossypium hirsutum, post-emergence. The method in brief: as §1
For assay [13], the system named is Soybean. The experiment in a line: Postemergence Herbicidal Activity, Soybean. As to conditions: Glycine max, post-emergence. The method in brief: as §2
Assay [14] relates to Field Corn. The experiment in a line: Postemergence Herbicidal Activity, Field Corn. As to conditions: Zea mays, post-emergence. Summed up:
as §2

Assay [15] concerns Rice. The experiment in a line: Postemergence Herbicidal Activity, Rice. As to conditions: Oryza sativa, post-emergence. Summed up: as §2
Assay [16] has as its system Wheat. Description: Postemergence Herbicidal Activity, Wheat. To be noted: Triticum aestivum, post-emergence. Summed up: as §2
The subject of assay [17] is Field Bindweed. The experiment in a line: Postemergence Herbicidal Activity, Field Bindweed. To be noted: post-emergence. Summed up: as §1
Assay [18] relates to Morningglory. The experiment in a line: Postemergence Herbicidal Activity, Morningglory. As to conditions: Ipomoea, post-emergence. Summed up:
as §1

Assay [19] concerns Velvetleaf. Description: Postemergence Herbicidal Activity, Velvetleaf. To be noted: Abutilon theophrasti, post-emergence. Summed up: as §1
Assay [20] deals with Barnyardgrass. Description: Postemergence Herbicidal Activity, Barnyardgrass. To be noted: Echinochloa crus-galli, post-emergence. The method in brief:
as §3

The subject of assay [21] is Green Foxtail. Description: Postemergence Herbicidal Activity, Green Foxtail. To be noted: Setaria viridis, post-emergence. Summed up:
as §3

The test system of assay [22] is Johnsongrass. The experiment in a line: Postemergence Herbicidal Activity, Johnsongrass. To be noted: Sorghum halepense, post-emergence. Summed up:
as §3

Each structure is given as a SMILES string.

As to `CCCS(=O)(=O)N(C)c1cc(-n2nnn(CCCF)c2=O)c(F)cc1Cl` [Compound 29, 1-[4-Chloro-2-fluoro-5-(N--methyl-N--propylsulfonylamino)phenyl]-1,4-dihydro-4-(3-fluoropropyl)-5H--tetrazol-5-one], the plant injury (commonly the degree to which the test organism was suppressed or injured, in per cent) at 250 g/ha with Cotton [1] (0.25 kg/ha) stood at 60%; in the assay with Soybean [2] (0.25 kg/ha), 30%; in the assay on Field Corn [3] (0.25 kg/ha) it was 95%; in the assay with Rice [4] (0.25 kg/ha), 60%; in the assay on Wheat [5] (0.25 kg/ha) it was 80%; in the assay on Cotton [12] (0.25 kg/ha) it was 70%. Moreover, the plant injury at 250 g/ha in the assay with Soybean [13] (0.25 kg/ha) was determined as 70%; with Field Corn [14] (0.25 kg/ha), 40%; in the assay on Rice [15] (0.25 kg/ha), 60%; in the assay with Wheat [16] (0.25 kg/ha), 80%. The pest or weed control (usually how far the test organism was held down) at 250 g/ha with Field Bindweed [6] (0.25 kg/ha) was 70%; with Morningglory [7] (0.25 kg/ha), 70%; in the assay with Velvetleaf [8] (0.25 kg/ha) it was 100%; in the assay on Barnyardgrass [9] (0.25 kg/ha) it was 100%; in the assay with Green Foxtail [10] (0.25 kg/ha), 100%; with Johnsongrass [11] (0.25 kg/ha) it was 100%. The pest or weed control at 250 g/ha worked out at 80% in the assay with Field Bindweed [17] (0.25 kg/ha); 70% in the assay on Morningglory [18] (0.25 kg/ha); 100% in the assay on Velvetleaf [19] (0.25 kg/ha); 50% in the assay on Barnyardgrass [20] (0.25 kg/ha); 60% in the assay with Green Foxtail [21] (0.25 kg/ha); 70% in the assay with Johnsongrass [22] (0.25 kg/ha).

For `CCN(c1cc(-n2nnn(CCCF)c2=O)c(F)cc1Cl)S(=O)(=O)CC` [Compound 13, 1-[4-chloro-2-fluoro-5-[(N--ethyl-N--ehtylsulfonyl)amino]phenyl]-1,4-dihydro-4-(3-fluoropropyl)-5H--tetrazol-5-one], the plant injury at 1000 g/ha in the assay with Cotton [1] (1.0 kg/ha) came to 95%; with Soybean [2] (1.0 kg/ha), 95%; in the assay on Field Corn [3] (1.0 kg/ha), 100%; with Rice [4] (1.0 kg/ha) it was 100%; in the assay on Wheat [5] (1.0 kg/ha), 100%; in the assay on Cotton [12] (1.0 kg/ha), 100%. The plant injury at 1000 g/ha with Soybean [13] (1.0 kg/ha) came out at 95%; in the assay with Field Corn [14] (1.0 kg/ha), 100%; with Rice [15] (1.0 kg/ha), 100%; in the assay on Wheat [16] (1.0 kg/ha) it was 100%. The pest or weed control at 1000 g/ha worked out at 100% with Field Bindweed [6] (1.0 kg/ha); 95% in the assay with Morningglory [7] (1.0 kg/ha); 100% with Velvetleaf [8] (1.0 kg/ha); 100% in the assay with Barnyardgrass [9] (1.0 kg/ha); 100% in the assay on Green Foxtail [10] (1.0 kg/ha); 100% with Johnsongrass [11] (1.0 kg/ha). Moreover, the pest or weed control at 1000 g/ha in the assay on Field Bindweed [17] (1.0 kg/ha), in the assay on Morningglory [18] (1.0 kg/ha), with Velvetleaf [19] (1.0 kg/ha), in the assay with Barnyardgrass [20] (1.0 kg/ha), in the assay on Green Foxtail [21] (1.0 kg/ha) and with Johnsongrass [22] (1.0 kg/ha) was 100% in each case.

For the origin of these results see patent publication US4868321A, “Isothiocyanate intermediates” (FMC Corporation, priority 1988, dated 1989).
